The structures appear in SMILES notation.

As to `COc1cc(N2CCN([C@H](C)c3ccc(OC)c(OC)c3)CC2)ccc1Cl` [compound 4, (R)-1-(4-Chloro-3-Methoxy-Phenyl)-4-[1-(3,4-Dimethoxy-Phenyl)-Ethyl]-Piperazine], the melting point lay within 172 to 176 °C.

The values above are taken from patent publication US6953801B2, “Melanin concentrating hormone receptor ligands: substituted 1-benzyl-4-aryl piperazine analogues” (Neurogen Corporation, priority 2001, dated 2005).
